In US7371555B2, “Polypeptides having α-H-α-amino acid amide racemase activity and nucleic acids encoding the same” (DSM IP Assets B.V., priority 2002, dated 2008):

Legend:
[1] = test system: lyophilized O. anthropi IA cells; experiment: α-H-α-amino acid amide racemase activity of lyophilized O. anthropi IA cells; format: biochemical, Ochrobactrum anthropi IA; conditions: approximately 72 hours at 40° C., 10 times diluted reaction mixture
Procedure: O. anthropi IA cells were cultivated in Medium A containing DL-α-amino-ε-caprolactam (2 g/l) as sole nitrogen source. After incubation at 28° C. and 200 rpm for three days (OD620 nm=4.7), cells were harvested by centrifugation, washed in 20 mM HEPES-NaOH buffer of pH 7.7 and lyophilized.
The assay mixture consisted of 10 mM HEPES-NaOH buffer (pH 7.7) containing toluene (2,5 v/v %), pyridoxal-5-phosphate (20 μM), D- or L-leucine amide (2.5 m %) and in some cases EDTA (20 mM). Per assay 150 mg of lyophilized cells were used. Chemical blanks (with the assay mixture without the O. anthropi IA cells) were used as a negative control. All reaction mixtures (including the blanks) were incubated for approximately 72 hours at 40° C. before the reaction was stopped by the addition of 9 volumes of 1 M H3PO4. Finally, the reaction mixtures were analyzed by HPLC to determine the concentrations of D- and L-leucine amide and of D- and L-leucine. o-Phthaldehyde in combination with D-3-mercapto-2-methylpropionic acid was used in this HPLC method as a chiral reagent for the enantioseparation of these amino compounds (Duchateau, et al., J. Chromatogr. (1992) 623:237-245).
In a number of reactions EDTA was added to inhibit L- and/or D-specific amidase(s) present in the O. anthropi IA cells.
Without EDTA, amidases convert the substrate and/or product α-H-α-amino acid amides into α-H-α-amino acids thereby preventing direct detection of the other α-H-α-amino acid amide enantiomer as racemization product. […] Formation of L-leucine from D-leucine amide could not be detected in the chemical blank.

[2] = test system: E. coli DH10B/pOA(1)PLV49B10 cells containing the α-H-α-amino acid amide racemase gene from Ochrobactrum anthropi IA; experiment: Racemase activity test with D-leucine amide and whole E. coli cells (Example 5); format: cell-based; conditions: Strain A
Procedure: A single colony of E. coli DH10B containing plasmid pOA(1)PLV49B10 was transferred to LB medium with kanamycin (50 mg/l) to prepare a pre-culture. After overnight incubation at 28° C. and 200 rpm, this pre-culture was used to inoculated a flask with 500 ml of 2*TY medium (10 g/l Yeast extract, 16 g/l Tryptone, 5 g/l NaCl) containing kanamycin (50 mg/l). After overnight growth at 28° C. (OD620nm=4.4) and 200 rpm, cells were harvested by centrifugation (15 min. at 6,200×g, 4° C.), and washed with 50 mM HEPES-NaOH buffer of pH 7.7.
The cell pellets from both cultures were subsequently washed and resuspended in 25 ml of 50 mM HEPES-NaOH buffer, pH 7.7. Aliquots of 2 ml of both cell suspensions were centrifuged once more and the pellets were stored at −20° C. until execution of the activity tests described below. The remaining part of these cell suspensions was stored at −20° C. for use in Example 6.
To determine the activity of E. coli/pOA(1)PLV49B10 and the E. coli control, the above-mentioned cell pellets were thawed and resuspended to a total volume of 1 ml with 50 mM HEPES-NaOH buffer, pH 7.7. Then, reaction mixtures of 10 ml each were prepared containing 50 mM HEPES-NaOH buffer (pH 7.7), 10 μM pyridoxal-5-phosphate (PLP), 2.5 wt % of D-leucine amide, if applicable 20 mM of EDTA to suppress the E. coli amidase activity, and 0.5 ml of the E. coli/pOA(1)PLV49B10 and E. coli DH10B/pZErO-GFPuv-wrong-orientation cell suspensions or water (for chemical blanks). Reactions were started by the addition of the cells. Reaction mixtures were incubated at 30° C. and 175 rpm. Directly after addition of the cells (t=0 hours) and after 27 and 43 hours samples were taken in which the reaction was stopped by removal of the cells via centrifugation followed by 0.22 μM filtration. Finally, the filtered samples were stored at −20° C. until analysis by chiral HPLC as described below: • column: Sumichiral OA5000 from Sumika (150×4.6 mm I.D., 5μ)+guard column • eluent: 85 v/v % 2 mM CuSO4+15 v/v % methanol • flow: 1.0 ml/min. • column temp.: 40° C. • inj. volume: 5 μl • detection: fluorescence detection after post-column reaction with o-phthalaldehyde and 2-mercaptoethanol (wavelength ex=338 nm and em>420 nm)

[3] = with 20 mM EDTA, incubation time 27 h
[4] = with 20 mM EDTA, incubation time 43 h
[5] = without 20 mM EDTA, incubation time 27 h
[6] = without 20 mM EDTA, incubation time 43 h

CC(C)C[C@@H](N)C(N)=O [D-leucine amide]
D-leucine ([1]; with EDTA (20 mM)): 0.007 m %
D-leucine amide ([1]; with EDTA (20 mM)): 0.24 m %
L-leucine ([1]; with EDTA (20 mM)): 0.008 m %
L-leucine amide ([1]; with EDTA (20 mM)): 0.032 m %
D-leucine ([1]; without EDTA): 0.015 m %
D-leucine amide ([1]; without EDTA): 0.22 m %
L-leucine ([1]; without EDTA): 0.044 m %
L-leucine amide ([1]; without EDTA): <0.001 m %
D-leucine amide ([2]; with 20 mM EDTA, incubation time 0 h): 2.61 wt %
D-leucine [2, 3]: 0.003 wt %
D-leucine amide [2, 3]: 1.77 wt %
L-leucine [2, 3]: 0.313 wt %
L-leucine amide [2, 3]: 0.555 wt %
D-leucine [2, 4]: 0.006 wt %
D-leucine amide [2, 4]: 1.59 wt %
L-leucine [2, 4]: 0.345 wt %
L-leucine amide [2, 4]: 0.772 wt %
D-leucine amide ([2]; without 20 mM EDTA, incubation time 0 h): 2.63 wt %
D-leucine [2, 5]: 0.009 wt %
D-leucine amide [2, 5]: 1.03 wt %
L-leucine [2, 5]: 1.71 wt %
L-leucine amide [2, 5]: 0.170 wt %
D-leucine [2, 6]: 0.017 wt %
D-leucine amide [2, 6]: 0.512 wt %
L-leucine [2, 6]: 2.12 wt %
L-leucine amide [2, 6]: 0.063 wt %
